Data: ChEMBL document CHEMBL3991601, “The target landscape of clinical kinase drugs” (Science, 2017)
The source made the active and inactive calls. On the calls: in the data inactive means no Kd found up to 30 µM.

Key:
[1] = molecular target: ALK tyrosine kinase receptor (Homo sapiens, UniProt Q9UM73); format: subcellular, K-562, COLO 205, SK-N-BE(2) and MV-4-11, Cell lysate; settings: read-out: Kd apparent
[2] = molecular target: Eukaryotic peptide chain release factor GTP-binding subunit ERF3B (Homo sapiens, UniProt Q8IYD1)
Sequence of Eukaryotic peptide chain release factor GTP-binding subunit ERF3B (Q8IYD1 whole entry): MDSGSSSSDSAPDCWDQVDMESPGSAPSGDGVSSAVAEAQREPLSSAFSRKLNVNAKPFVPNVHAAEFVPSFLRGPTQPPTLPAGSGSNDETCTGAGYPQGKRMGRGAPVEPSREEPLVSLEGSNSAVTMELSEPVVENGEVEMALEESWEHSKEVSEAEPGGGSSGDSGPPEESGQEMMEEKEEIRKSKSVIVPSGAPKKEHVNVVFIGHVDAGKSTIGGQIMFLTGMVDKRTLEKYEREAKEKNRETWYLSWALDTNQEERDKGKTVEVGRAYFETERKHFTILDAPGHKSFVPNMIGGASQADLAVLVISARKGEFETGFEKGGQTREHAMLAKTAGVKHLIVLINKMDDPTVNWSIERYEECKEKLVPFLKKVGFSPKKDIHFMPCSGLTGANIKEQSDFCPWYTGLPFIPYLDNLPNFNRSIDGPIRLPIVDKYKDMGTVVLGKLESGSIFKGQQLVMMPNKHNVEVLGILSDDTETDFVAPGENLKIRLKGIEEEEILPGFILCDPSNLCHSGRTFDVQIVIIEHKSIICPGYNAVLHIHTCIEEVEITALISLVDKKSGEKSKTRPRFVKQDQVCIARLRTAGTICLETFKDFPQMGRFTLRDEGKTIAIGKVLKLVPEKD

[3] = molecular target: Tyrosine-protein kinase Fgr (Homo sapiens, UniProt P09769)
[4] = molecular target: T1, Cyclin-dependent kinase-like 5 (Homo sapiens, UniProt O76039)
T1 sequence (O76039 whole entry): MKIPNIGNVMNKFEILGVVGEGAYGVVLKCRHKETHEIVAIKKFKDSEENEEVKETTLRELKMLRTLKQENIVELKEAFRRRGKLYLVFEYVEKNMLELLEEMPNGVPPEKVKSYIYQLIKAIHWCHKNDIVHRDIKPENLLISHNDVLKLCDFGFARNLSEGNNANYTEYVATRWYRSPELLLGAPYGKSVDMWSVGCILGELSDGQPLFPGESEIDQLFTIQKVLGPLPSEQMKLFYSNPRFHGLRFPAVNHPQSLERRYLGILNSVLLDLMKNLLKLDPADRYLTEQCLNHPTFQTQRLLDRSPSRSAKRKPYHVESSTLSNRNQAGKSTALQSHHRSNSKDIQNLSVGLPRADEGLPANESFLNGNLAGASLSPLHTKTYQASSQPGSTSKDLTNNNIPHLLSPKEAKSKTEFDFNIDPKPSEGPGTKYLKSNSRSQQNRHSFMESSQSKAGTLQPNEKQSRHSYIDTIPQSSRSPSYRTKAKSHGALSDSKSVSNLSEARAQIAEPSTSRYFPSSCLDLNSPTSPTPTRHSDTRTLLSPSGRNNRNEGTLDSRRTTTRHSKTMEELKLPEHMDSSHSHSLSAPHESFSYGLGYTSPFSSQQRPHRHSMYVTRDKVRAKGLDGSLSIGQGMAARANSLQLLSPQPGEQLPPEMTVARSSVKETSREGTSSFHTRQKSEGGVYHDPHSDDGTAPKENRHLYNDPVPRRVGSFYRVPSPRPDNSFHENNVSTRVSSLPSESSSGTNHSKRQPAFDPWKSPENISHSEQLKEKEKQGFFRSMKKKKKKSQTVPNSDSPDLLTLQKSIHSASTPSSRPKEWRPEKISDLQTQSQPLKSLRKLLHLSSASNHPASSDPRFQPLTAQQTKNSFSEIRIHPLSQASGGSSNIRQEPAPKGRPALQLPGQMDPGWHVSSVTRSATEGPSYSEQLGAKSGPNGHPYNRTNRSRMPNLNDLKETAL

[5] = molecular target: Serine/threonine-protein kinase PLK1 (Homo sapiens, UniProt P53350)
[6] = molecular target: Tyrosine-protein kinase JAK2 (Homo sapiens, UniProt O60674)
Sequence of Tyrosine-protein kinase JAK2 (O60674 whole entry): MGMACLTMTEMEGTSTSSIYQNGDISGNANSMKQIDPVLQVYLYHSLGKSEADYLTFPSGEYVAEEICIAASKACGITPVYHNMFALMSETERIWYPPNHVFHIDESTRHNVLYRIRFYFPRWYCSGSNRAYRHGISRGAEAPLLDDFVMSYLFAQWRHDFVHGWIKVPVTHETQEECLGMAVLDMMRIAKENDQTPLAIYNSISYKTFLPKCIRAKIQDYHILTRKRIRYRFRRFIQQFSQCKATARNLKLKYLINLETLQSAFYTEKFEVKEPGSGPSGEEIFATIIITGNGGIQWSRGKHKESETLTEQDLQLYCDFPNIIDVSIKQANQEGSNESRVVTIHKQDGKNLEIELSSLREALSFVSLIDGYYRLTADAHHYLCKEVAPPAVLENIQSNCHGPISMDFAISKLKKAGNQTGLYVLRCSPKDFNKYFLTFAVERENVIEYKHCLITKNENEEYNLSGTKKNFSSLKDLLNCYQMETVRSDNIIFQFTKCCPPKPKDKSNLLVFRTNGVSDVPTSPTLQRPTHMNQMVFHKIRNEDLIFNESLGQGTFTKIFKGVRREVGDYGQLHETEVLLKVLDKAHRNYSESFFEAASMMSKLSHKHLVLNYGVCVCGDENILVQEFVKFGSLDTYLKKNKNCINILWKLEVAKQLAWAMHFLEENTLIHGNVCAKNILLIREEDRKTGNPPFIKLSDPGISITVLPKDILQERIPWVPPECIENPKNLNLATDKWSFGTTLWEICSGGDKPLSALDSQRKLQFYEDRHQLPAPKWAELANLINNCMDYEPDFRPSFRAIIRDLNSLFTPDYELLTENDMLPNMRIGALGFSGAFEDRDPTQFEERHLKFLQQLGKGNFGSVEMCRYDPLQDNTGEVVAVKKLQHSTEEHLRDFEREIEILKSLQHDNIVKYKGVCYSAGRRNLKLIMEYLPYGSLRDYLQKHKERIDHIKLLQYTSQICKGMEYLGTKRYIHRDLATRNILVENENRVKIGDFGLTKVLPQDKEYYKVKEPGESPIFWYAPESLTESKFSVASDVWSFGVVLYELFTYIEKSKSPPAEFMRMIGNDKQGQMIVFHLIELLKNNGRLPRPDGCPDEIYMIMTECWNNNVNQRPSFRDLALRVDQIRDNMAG

[7] = molecular target: Cell division cycle 7-related protein kinase (Homo sapiens, UniProt O00311)
[8] = molecular target: Serine/threonine-protein kinase 38 (Homo sapiens, UniProt Q15208)
[9] = molecular target: T2, Dual specificity protein kinase TTK (Homo sapiens, UniProt P33981)
T2 sequence (P33981 whole entry): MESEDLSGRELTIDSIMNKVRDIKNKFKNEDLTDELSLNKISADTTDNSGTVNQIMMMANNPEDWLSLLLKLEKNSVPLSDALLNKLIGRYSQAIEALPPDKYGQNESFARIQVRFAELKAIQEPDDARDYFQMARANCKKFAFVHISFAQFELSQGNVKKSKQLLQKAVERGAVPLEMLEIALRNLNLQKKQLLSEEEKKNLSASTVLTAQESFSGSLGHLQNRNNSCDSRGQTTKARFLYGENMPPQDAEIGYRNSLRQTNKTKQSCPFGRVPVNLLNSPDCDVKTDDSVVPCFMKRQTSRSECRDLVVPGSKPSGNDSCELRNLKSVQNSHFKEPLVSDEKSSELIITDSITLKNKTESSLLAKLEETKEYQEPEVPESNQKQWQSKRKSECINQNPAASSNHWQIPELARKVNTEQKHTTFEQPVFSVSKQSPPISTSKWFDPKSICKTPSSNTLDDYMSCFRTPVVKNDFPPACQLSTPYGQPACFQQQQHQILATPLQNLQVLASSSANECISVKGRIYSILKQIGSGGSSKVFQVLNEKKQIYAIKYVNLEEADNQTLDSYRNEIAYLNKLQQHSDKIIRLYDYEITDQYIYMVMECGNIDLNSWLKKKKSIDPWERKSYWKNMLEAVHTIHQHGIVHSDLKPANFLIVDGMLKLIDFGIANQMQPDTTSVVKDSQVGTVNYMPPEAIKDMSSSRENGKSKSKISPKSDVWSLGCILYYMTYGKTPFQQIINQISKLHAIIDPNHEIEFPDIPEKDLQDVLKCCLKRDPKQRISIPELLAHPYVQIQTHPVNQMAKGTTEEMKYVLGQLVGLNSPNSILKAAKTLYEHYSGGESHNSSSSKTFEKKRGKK

[10] = molecular target: Dual specificity protein kinase CLK3 (Homo sapiens, UniProt P49761); format: subcellular, K-562, COLO 205, SK-N-BE(2) and MV-4-11, Cell lysate; settings: read-out: Kd apparent
Sequence of Dual specificity protein kinase CLK3 (P49761 whole entry): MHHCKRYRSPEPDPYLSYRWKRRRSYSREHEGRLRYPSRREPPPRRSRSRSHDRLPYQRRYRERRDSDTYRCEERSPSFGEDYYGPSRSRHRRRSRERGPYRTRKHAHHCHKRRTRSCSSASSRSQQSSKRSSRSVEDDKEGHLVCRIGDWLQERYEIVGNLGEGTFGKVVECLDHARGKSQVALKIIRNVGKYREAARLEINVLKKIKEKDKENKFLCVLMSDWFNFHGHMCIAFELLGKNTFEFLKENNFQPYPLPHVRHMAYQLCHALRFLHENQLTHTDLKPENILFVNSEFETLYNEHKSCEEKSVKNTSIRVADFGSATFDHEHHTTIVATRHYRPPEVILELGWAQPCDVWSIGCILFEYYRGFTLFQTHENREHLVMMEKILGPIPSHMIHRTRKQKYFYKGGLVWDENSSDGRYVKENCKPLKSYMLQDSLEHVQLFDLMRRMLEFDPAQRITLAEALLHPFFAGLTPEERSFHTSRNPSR

[11] = molecular target: Activin receptor type-1-like (Homo sapiens, UniProt P37023)
Sequence of Activin receptor type-1-like (P37023 whole entry): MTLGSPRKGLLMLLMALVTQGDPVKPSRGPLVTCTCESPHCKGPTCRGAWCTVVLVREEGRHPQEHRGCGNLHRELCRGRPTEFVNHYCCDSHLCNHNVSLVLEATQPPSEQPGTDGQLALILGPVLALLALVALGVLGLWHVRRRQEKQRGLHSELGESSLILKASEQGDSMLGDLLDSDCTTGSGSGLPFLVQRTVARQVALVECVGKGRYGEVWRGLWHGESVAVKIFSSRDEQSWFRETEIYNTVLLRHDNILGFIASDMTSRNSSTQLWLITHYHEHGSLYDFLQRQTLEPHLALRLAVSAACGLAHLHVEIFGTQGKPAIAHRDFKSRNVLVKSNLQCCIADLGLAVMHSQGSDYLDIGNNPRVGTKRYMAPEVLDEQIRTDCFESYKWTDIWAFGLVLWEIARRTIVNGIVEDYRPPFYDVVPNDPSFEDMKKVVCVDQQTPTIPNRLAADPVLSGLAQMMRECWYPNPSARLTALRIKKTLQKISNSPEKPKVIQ

[12] = molecular target: Dual specificity tyrosine-phosphorylation-regulated kinase 1B (Homo sapiens, UniProt Q9Y463)
Sequence of Dual specificity tyrosine-phosphorylation-regulated kinase 1B (Q9Y463 whole entry): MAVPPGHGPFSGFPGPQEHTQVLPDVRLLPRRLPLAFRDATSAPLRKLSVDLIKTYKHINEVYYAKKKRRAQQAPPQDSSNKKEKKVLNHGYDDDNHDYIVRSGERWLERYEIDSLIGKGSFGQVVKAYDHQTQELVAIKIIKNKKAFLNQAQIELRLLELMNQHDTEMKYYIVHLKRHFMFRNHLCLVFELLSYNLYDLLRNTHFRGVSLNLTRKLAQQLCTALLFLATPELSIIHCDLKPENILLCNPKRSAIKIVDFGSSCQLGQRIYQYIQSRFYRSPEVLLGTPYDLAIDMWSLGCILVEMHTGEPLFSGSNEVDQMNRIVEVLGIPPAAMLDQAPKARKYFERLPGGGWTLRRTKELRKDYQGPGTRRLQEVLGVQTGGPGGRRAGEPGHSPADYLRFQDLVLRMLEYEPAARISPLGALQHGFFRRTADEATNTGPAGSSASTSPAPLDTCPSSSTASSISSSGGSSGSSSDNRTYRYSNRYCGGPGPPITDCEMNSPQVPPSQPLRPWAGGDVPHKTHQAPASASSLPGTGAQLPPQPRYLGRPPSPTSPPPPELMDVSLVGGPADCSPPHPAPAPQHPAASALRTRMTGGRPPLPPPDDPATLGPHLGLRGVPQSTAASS

[13] = molecular target: Cyclin-dependent kinase 10 (Homo sapiens, UniProt Q15131)

Sequence of ALK tyrosine kinase receptor (Q9UM73 whole entry): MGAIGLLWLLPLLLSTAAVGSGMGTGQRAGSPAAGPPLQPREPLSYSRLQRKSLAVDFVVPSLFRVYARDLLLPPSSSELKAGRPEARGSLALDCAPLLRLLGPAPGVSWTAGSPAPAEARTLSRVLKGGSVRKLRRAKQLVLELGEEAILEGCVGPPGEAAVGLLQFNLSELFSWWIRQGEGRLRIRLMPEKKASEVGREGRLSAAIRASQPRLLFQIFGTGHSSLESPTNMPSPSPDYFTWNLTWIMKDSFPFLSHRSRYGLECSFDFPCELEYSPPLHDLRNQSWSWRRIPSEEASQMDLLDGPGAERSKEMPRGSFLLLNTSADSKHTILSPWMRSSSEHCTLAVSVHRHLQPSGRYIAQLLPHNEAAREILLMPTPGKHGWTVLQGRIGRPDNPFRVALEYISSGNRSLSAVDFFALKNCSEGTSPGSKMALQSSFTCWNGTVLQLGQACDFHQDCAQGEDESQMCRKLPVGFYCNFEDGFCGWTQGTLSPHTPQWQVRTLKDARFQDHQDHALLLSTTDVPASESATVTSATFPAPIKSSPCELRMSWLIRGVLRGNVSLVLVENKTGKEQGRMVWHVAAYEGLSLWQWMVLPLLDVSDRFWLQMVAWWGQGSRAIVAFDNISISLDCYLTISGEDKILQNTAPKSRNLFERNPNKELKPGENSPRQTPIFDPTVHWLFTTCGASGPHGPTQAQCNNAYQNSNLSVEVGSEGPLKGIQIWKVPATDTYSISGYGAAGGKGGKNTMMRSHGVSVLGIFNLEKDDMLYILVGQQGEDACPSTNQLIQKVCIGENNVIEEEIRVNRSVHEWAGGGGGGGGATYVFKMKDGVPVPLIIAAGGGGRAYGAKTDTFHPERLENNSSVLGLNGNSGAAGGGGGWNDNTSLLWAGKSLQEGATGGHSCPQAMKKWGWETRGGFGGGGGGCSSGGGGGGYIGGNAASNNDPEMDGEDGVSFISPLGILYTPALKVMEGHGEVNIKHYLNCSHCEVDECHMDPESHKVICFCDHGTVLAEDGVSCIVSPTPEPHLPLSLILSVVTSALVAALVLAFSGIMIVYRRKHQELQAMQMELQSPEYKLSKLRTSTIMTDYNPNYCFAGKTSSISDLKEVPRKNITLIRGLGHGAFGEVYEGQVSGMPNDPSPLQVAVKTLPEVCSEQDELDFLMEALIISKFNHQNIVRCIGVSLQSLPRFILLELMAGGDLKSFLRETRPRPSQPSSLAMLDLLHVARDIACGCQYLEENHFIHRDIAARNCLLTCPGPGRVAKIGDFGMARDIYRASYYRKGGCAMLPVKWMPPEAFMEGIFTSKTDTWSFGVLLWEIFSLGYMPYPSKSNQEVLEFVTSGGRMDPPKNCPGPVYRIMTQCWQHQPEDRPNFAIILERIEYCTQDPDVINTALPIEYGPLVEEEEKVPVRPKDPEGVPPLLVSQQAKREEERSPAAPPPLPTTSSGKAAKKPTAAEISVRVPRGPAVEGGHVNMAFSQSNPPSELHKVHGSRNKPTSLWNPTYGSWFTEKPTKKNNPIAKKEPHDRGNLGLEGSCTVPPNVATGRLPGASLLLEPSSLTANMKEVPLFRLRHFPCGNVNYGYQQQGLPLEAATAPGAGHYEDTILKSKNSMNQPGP

CC(=O)c1cnc2ccc(-c3cc(Cl)c(O)c(Cl)c3)nc2c1N[C@H]1CC[C@H](CN(C)C)CC1
Kd [1]: > 30 µM (inactive)
Kd [2]: > 30 µM (inactive)

Cc1nc2cc(-c3nn(C(C)C)c4ncnc(N)c34)ccc2o1
Kd [3]: > 30 µM (inactive)
Kd [4]: > 30 µM (inactive)
Kd [5]: > 30 µM (inactive)
Kd [6]: > 30 µM (inactive)
Kd [2]: > 30 µM (inactive)

COCc1c(-c2ccc(NC(=O)Nc3cc(C(F)(F)F)ccc3F)c(F)c2)c2c(N)ncnn2c1CN1CCOCC1
Kd [4]: > 30 µM (inactive)
Kd [5]: > 30 µM (inactive)
Kd [7]: > 30 µM (inactive)
Kd [8]: > 30 µM (inactive)
Kd [1]: > 30 µM (inactive)

Nc1ncnc2c1c(-c1cccc(OCc3ccccc3)c1)cn2[C@H]1C[C@@H](CN2CCC2)C1 [AEW-541]
Kd [5]: > 30 µM (inactive)
Kd [1]: > 30 µM (inactive)

Cc1csc(-c2nnc(Nc3ccc(Oc4ncccc4-c4ccnc(N)n4)cc3)c3ccccc23)c1 [AMG-900]
Kd [9]: > 30 µM (inactive)
Kd [6]: > 30 µM (inactive)
Kd [10]: 1.48 µM (active)
Kd [11]: > 30 µM (inactive)
Kd [8]: > 30 µM (inactive)

C=CC(=O)Nc1cc2c(Nc3ccc(F)c(Cl)c3)ncnc2cc1C#CC(C)(C)N1CCN(C)CC1 [AV-412 FREE BASE]
Kd [4]: > 30 µM (inactive)
Kd [12]: > 30 µM (inactive)

NC(=O)Nc1cc(-c2cccc(F)c2)sc1C(=O)N[C@H]1CCCNC1 [AZD-7762]
Kd [13]: > 30 µM (inactive)
Kd [9]: > 30 µM (inactive)
Kd [10]: > 30 µM (inactive)
Kd [11]: > 30 µM (inactive)

Cc1cc(C(=O)NOCCO)c(Nc2ccc(I)cc2F)n(C)c1=O [AZD-8330]
Kd [3]: > 30 µM (inactive)
Kd [4]: > 30 µM (inactive)
Kd [5]: > 30 µM (inactive)
Kd [9]: > 30 µM (inactive)
Kd [6]: > 30 µM (inactive)
Kd [10]: > 30 µM (inactive)
Kd [11]: > 30 µM (inactive)

Cn1cnc2c(F)c(Nc3ccc(Br)cc3F)c(C(=O)NOCCO)cc21 [BINIMETINIB]
Kd [3]: > 30 µM (inactive)
Kd [5]: > 30 µM (inactive)
Kd [13]: > 30 µM (inactive)
Kd [11]: > 30 µM (inactive)
Kd [7]: > 30 µM (inactive)

Cc1cc(Nc2ncc(Cl)c(Nc3ccccc3S(=O)(=O)C(C)C)n2)c(OC(C)C)cc1C1CCNCC1 [CERITINIB]
Kd [4]: > 30 µM (inactive)
Kd [5]: > 30 µM (inactive)
Kd [12]: > 30 µM (inactive)
Kd [9]: > 30 µM (inactive)
Kd [8]: > 30 µM (inactive)

COCC(=O)NC/C=C/c1ccc2ncnc(Nc3ccc(Oc4ccc(C)nc4)c(C)c3)c2c1 [CP-724714]
Kd [4]: > 30 µM (inactive)
Kd [5]: > 30 µM (inactive)
Kd [7]: > 30 µM (inactive)
Kd [1]: > 30 µM (inactive)

CC(C)(C)c1nc(-c2cccc(NS(=O)(=O)c3c(F)cccc3F)c2F)c(-c2ccnc(N)n2)s1 [DABRAFENIB]
Kd [3]: 1.55 µM (active)
Kd [4]: > 30 µM (inactive)
Kd [5]: > 30 µM (inactive)
Kd [13]: > 30 µM (inactive)
Kd [12]: > 30 µM (inactive)
Kd [9]: > 30 µM (inactive)
Kd [10]: > 30 µM (inactive)
Kd [7]: > 30 µM (inactive)
Kd [2]: > 30 µM (inactive)

Cc1nc2cc(-n3ncc(C(=O)c4cc5ccccc5[nH]4)c3N)ccc2[nH]1 [FGFR INHIBITOR DEBIO 1347]
Kd [3]: > 30 µM (inactive)
Kd [4]: > 30 µM (inactive)
Kd [7]: > 30 µM (inactive)

Cc1cccc(-c2nn3c(c2-c2ccnc4ccc(C(N)=O)cc24)CCC3)n1 [GALUNISERTIB]
Kd [5]: > 30 µM (inactive)
Kd [12]: > 30 µM (inactive)
Kd [9]: > 30 µM (inactive)
Kd [1]: > 30 µM (inactive)
Kd [2]: > 30 µM (inactive)

CCn1cc(-c2ccnc3[nH]c(-c4cccc(CN(C)C)c4)cc23)c(-c2ccc(NC(=O)N(C)C)cc2)n1 [GSK-1070916]
Kd [3]: > 30 µM (inactive)
Kd [4]: > 30 µM (inactive)
Kd [12]: > 30 µM (inactive)
Kd [9]: > 30 µM (inactive)
Kd [6]: > 30 µM (inactive)
Kd [10]: > 30 µM (inactive)
Kd [8]: > 30 µM (inactive)

COc1ccc(S(=O)(=O)N(C(C)=O)c2ccccc2/C=C/c2cc[n+]([O-])cc2)cc1 [HMN-214]
Kd [3]: > 30 µM (inactive)
Kd [4]: > 30 µM (inactive)
Kd [5]: > 30 µM (inactive)
Kd [10]: > 30 µM (inactive)
Kd [7]: > 30 µM (inactive)

NC1(c2ccc(-c3nc4ccn5c(=O)[nH]nc5c4cc3-c3ccccc3)cc2)CCC1 [MK-2206]
Kd [12]: > 30 µM (inactive)
Kd [7]: > 30 µM (inactive)

Cn1cc(-c2cnc3ccc4ccc(CS(=O)(=O)NCc5ccccn5)cc4c(=O)c3c2)cn1 [MK-8033]
Kd [5]: > 30 µM (inactive)
Kd [12]: > 30 µM (inactive)
Kd [6]: > 30 µM (inactive)
Kd [10]: > 30 µM (inactive)
Kd [11]: > 30 µM (inactive)
Kd [7]: > 30 µM (inactive)
Kd [2]: > 30 µM (inactive)

Cc1[nH]c(/C=C2\C(=O)Nc3ccccc32)c(C)c1CCC(=O)O [ORANTINIB]
Kd [3]: > 30 µM (inactive)
Kd [4]: > 30 µM (inactive)
Kd [13]: > 30 µM (inactive)
Kd [9]: > 30 µM (inactive)
Kd [10]: > 30 µM (inactive)

NC(=O)c1c(OCc2c(F)cc(Br)cc2F)nsc1NC(=O)NCCCCN1CCCC1 [OSI-632]
Kd [3]: > 30 µM (inactive)
Kd [4]: > 30 µM (inactive)
Kd [9]: > 30 µM (inactive)
Kd [10]: > 30 µM (inactive)
Kd [8]: > 30 µM (inactive)

Cc1cnc(NC(=O)Nc2cc(Br)c(C)cc2OC[C@@H]2CNCCO2)cn1 [RABUSERTIB]
Kd [4]: > 30 µM (inactive)
Kd [5]: > 30 µM (inactive)
Kd [13]: > 30 µM (inactive)
Kd [6]: > 30 µM (inactive)
Kd [10]: > 30 µM (inactive)
Kd [7]: > 30 µM (inactive)
Kd [2]: > 30 µM (inactive)

CNC(=O)c1cc(Oc2ccc(NC(=O)Nc3cc(C(C)(C)C)nn3-c3ccc4ncccc4c3)c(F)c2)ccn1 [REBASTINIB]
Kd [5]: > 30 µM (inactive)
Kd [9]: > 30 µM (inactive)
Kd [6]: 4.46 µM (active)
Kd [10]: > 30 µM (inactive)

N#CC1(c2ccc(NC(=O)c3cccnc3NCc3ccncc3)cc2)CCCC1 [RIVOCERANIB]
Kd [4]: > 30 µM (inactive)
Kd [12]: > 30 µM (inactive)
Kd [9]: > 30 µM (inactive)
Kd [6]: > 30 µM (inactive)
Kd [10]: > 30 µM (inactive)
Kd [7]: > 30 µM (inactive)

Cn1cc(-c2cnn3c(N)c(Br)c([C@@H]4CCCNC4)nc23)cn1 [SCH-900776]
Kd [3]: > 30 µM (inactive)
Kd [4]: > 30 µM (inactive)
Kd [10]: > 30 µM (inactive)
Kd [7]: > 30 µM (inactive)
Kd [8]: > 30 µM (inactive)

C[C@@H](NC(=O)c1ncnc(N)c1Cl)c1ncc(C(=O)Nc2cc(C(F)(F)F)c(Cl)cn2)s1 [TOVORAFENIB]
Kd [4]: > 30 µM (inactive)
Kd [13]: > 30 µM (inactive)
Kd [12]: > 30 µM (inactive)
Kd [9]: > 30 µM (inactive)
Kd [10]: > 30 µM (inactive)
Kd [7]: > 30 µM (inactive)
